#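 Following 48 hours of exposure in 96-well plates, responses at five concentrations were used to interpolate endpoints linearly. GI50 marks 50% less growth. At the TGI there is no net growth.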
# Legend:
# Test in all cases: NCI anticancer screen, dose series, 48 h
# NCI-H226 lung = tested on: NCI-H226 lung
# NCI-H23 lung = tested on: NCI-H23 lung
# NCI-H460 lung = tested on: NCI-H460 lung
# NCI-H522 lung = tested on: NCI-H522 lung
# OVCAR-3 ovarian = tested on: OVCAR-3 ovarian
# OVCAR-4 ovarian = tested on: OVCAR-4 ovarian
# OVCAR-5 ovarian = tested on: OVCAR-5 ovarian
# OVCAR-8 ovarian = tested on: OVCAR-8 ovarian
# PC-3 prostate = tested on: PC-3 prostate
# RPMI-8226 leukemia = tested on: RPMI-8226 leukemia
# RXF 393 renal = tested on: RXF 393 renal
# SF-268 CNS = tested on: SF-268 CNS
# SF-295 CNS = tested on: SF-295 CNS
# SF-539 CNS = tested on: SF-539 CNS
# SK-MEL-2 melanoma = tested on: SK-MEL-2 melanoma
# SK-MEL-28 melanoma = tested on: SK-MEL-28 melanoma
# SK-MEL-5 melanoma = tested on: SK-MEL-5 melanoma
# SK-OV-3 ovarian = tested on: SK-OV-3 ovarian
# SN12C renal = tested on: SN12C renal
# SNB-19 CNS = tested on: SNB-19 CNS
# SNB-75 CNS = tested on: SNB-75 CNS
# SR leukemia = tested on: SR leukemia
# SW-620 colon = tested on: SW-620 colon
# T-47D breast = tested on: T-47D breast
# TK-10 renal = tested on: TK-10 renal
# U251 CNS = tested on: U251 CNS
# UACC-257 melanoma = tested on: UACC-257 melanoma
# UACC-62 melanoma = tested on: UACC-62 melanoma
# UO-31 renal = tested on: UO-31 renal
compound,measurement,setting,value
O=c1cc(-c2ccccc2)oc2cc(OCCCNCc3ccccc3)cc(O)c12,GI50,NCI-H226 lung,11.1 µM
same,TGI,NCI-H226 lung,41.9 µM
same,GI50,NCI-H23 lung,11.9 µM
same,TGI,NCI-H23 lung,26.3 µM
same,GI50,NCI-H460 lung,4.15 µM
same,TGI,NCI-H460 lung,20.8 µM
same,GI50,NCI-H522 lung,6.21 µM
same,TGI,NCI-H522 lung,26.2 µM
same,GI50,OVCAR-3 ovarian,10 µM
same,TGI,OVCAR-3 ovarian,23.7 µM
same,GI50,OVCAR-4 ovarian,2.78 µM
same,TGI,OVCAR-4 ovarian,8.84 µM
same,GI50,OVCAR-5 ovarian,10 µM
same,TGI,OVCAR-5 ovarian,22.9 µM
same,GI50,OVCAR-8 ovarian,10.2 µM
same,TGI,OVCAR-8 ovarian,> 100 µM
same,GI50,PC-3 prostate,5.05 µM
same,TGI,PC-3 prostate,32.4 µM
same,GI50,RPMI-8226 leukemia,3.46 µM
same,TGI,RPMI-8226 leukemia,> 100 µM
same,GI50,RXF 393 renal,1.97 µM
same,TGI,RXF 393 renal,8.11 µM
same,GI50,SF-268 CNS,4.81 µM
same,TGI,SF-268 CNS,30.3 µM
same,GI50,SF-295 CNS,4.72 µM
same,TGI,SF-295 CNS,18 µM
same,GI50,SF-539 CNS,5.64 µM
same,TGI,SF-539 CNS,18.7 µM
same,GI50,SK-MEL-2 melanoma,6.43 µM
same,TGI,SK-MEL-2 melanoma,19.7 µM
same,GI50,SK-MEL-28 melanoma,2.31 µM
same,TGI,SK-MEL-28 melanoma,5.39 µM
same,GI50,SK-MEL-5 melanoma,5.04 µM
same,TGI,SK-MEL-5 melanoma,16.9 µM
same,GI50,SK-OV-3 ovarian,10.2 µM
same,TGI,SK-OV-3 ovarian,22.6 µM
same,GI50,SN12C renal,4.19 µM
same,TGI,SN12C renal,24.6 µM
same,GI50,SNB-19 CNS,10.4 µM
same,TGI,SNB-19 CNS,31.2 µM
same,GI50,SNB-75 CNS,2.4 µM
same,TGI,SNB-75 CNS,16.5 µM
same,GI50,SR leukemia,2.91 µM
same,TGI,SR leukemia,> 100 µM
same,GI50,SW-620 colon,5.98 µM
same,TGI,SW-620 colon,21.1 µM
same,GI50,T-47D breast,2.81 µM
same,TGI,T-47D breast,8.68 µM
same,GI50,TK-10 renal,14.8 µM
same,TGI,TK-10 renal,28.8 µM
same,GI50,U251 CNS,3.69 µM
same,TGI,U251 CNS,19.1 µM
same,GI50,UACC-257 melanoma,2.13 µM
same,TGI,UACC-257 melanoma,5.1 µM
same,GI50,UACC-62 melanoma,1.77 µM
same,TGI,UACC-62 melanoma,3.49 µM
same,GI50,UO-31 renal,1.15 µM
same,TGI,UO-31 renal,8.66 µM
